The values that follow come from ChEMBL document CHEMBL1151923, “Synthesis and evaluation of a netropsin-proximicin-hybrid library for DNA binding and cytotoxicity” (2009).

The test system of one experiment is HepG2. Briefly: Cytotoxicity against human HepG2 cells after 48 hrs by sulforhodamine B assay. The format is functional. As to conditions: HepG2, 48 h.
The test system of the next experiment is MCF7. Briefly: Cytotoxicity against human MCF7 cells after 48 hrs by sulforhodamine B assay. In kind it is functional. The note with it: MCF7, 48 h. (The SRB assay estimates cell density from bound dye.)
A further experiment deals with AGS. The experiment can be described thus: Cytotoxicity against human AGS cells after 48 hrs by sulforhodamine B assay. The format is functional.
Experiment [1] relates to Nucleic Acid. The experiment can be described thus: Binding affinity to DNA minor groove region CGCAAATTTGCG assessed as melting temperature at 6 uM by thermal denaturation study. In kind it is nucleic-acid assay.
Experiment [2] relates to Nucleic Acid. Briefly: Binding affinity to DNA minor groove region CGCAAATTTGCG assessed as change in melting temperature at 6 uM by thermal denaturation study. The format is nucleic-acid assay.
Experiment [3] has as its system Nucleic Acid. The experiment can be described thus: Binding affinity to DNA minor groove region CATGGCCATG assessed as change in melting temperature at 6 uM by thermal denaturation study. In kind it is nucleic-acid assay.
The test system of experiment [4] is Nucleic Acid. Briefly: Binding affinity to DNA minor groove region CATGGCCATG assessed as melting temperature at 6 uM by thermal denaturation study. In kind it is nucleic-acid assay.

The structures appear in SMILES notation. A value given as a limit tells only on which side of the number the result lay.

For orientation: GI50 means the concentration that inhibits growth by half. For orientation: Tm means the temperature at which the thermal transition is half complete. For orientation: ΔTm means the shift of the melting midpoint relative to a reference.

As to `COC(=O)Nc1cc(C(=O)Nc2cc(C(=O)NCCc3ccc(O)c(O)c3)n(C)c2)n(C)c1`, the GI50 with HepG2, in the experiment on MCF7 and in the experiment on AGS was more than 20 µg/mL each time.
For the molecule `COC(=O)Nc1cc(C(=O)Nc2cc(C(=O)OCCc3ccccc3)n(C)c2)n(C)c1`, the GI50 with HepG2 was found to be 2 µM; in the experiment with MCF7, 13 µM; in the experiment on AGS, 2.8 µM. Also, the Tm with Nucleic Acid [1] came to 71 °C; in the experiment on Nucleic Acid [4] it was 47 °C. Further, the ΔTm with Nucleic Acid [2] stood at 25 °C; in the experiment on Nucleic Acid [3], 0 °C.
For `Cn1cc(NC(=O)c2cc(NC(=O)OCC3c4ccccc4-c4ccccc43)cn2C)cc1C(=O)NCCc1c[nH]c2ccccc12`, the GI50 in the experiment with HepG2 was 4.6 µM; with MCF7, 18.8 µM; with AGS, more than 31.9 µM.
For `COC(=O)Nc1coc(C(=O)Nc2coc(C(N)=O)c2)c1` [PROXIMICIN A], in that order: 2.8 µM, 24.6 µM and 2 µM.
As for `CC(=O)Nc1cc(C(=O)Nc2cc(C(=O)NCCc3c[nH]c4ccccc34)n(C)c2)n(C)c1`, the GI50 in the experiment on HepG2, in the experiment with MCF7 and in the experiment with AGS was more than 20 µg/mL each time.
As to `COC(=O)Nc1cc(C(=O)Nc2cc(C(=O)NCCc3ccccc3)n(C)c2)n(C)c1`, the 50% growth inhibitory concentration (GI50) in the experiment with HepG2, with MCF7 and in the experiment on AGS was more than 20 µg/mL throughout.
Turning to `Cn1cc(NC(=O)c2cc(NC(=O)C(C)(C)C)cn2C)cc1C(=O)NCCc1c[nH]c2ccccc12`, the GI50 is more than 40.9 µM in the experiment with HepG2, 17.4 µM in the experiment on MCF7 and 23.5 µM in the experiment on AGS.
For `COC(=O)Nc1cc(C(=O)Nc2cc(C(=O)NCCc3c[nH]c4ccccc34)n(C)c2)n(C)c1`, in that order: 21.6 µM, 24.9 µM and 17.7 µM.
`Cn1cc(NC(=O)c2cc(NC(=O)OCC(Cl)(Cl)Cl)cn2C)cc1C(=O)NCCc1c[nH]c2ccccc12`: the GI50 stood at 4 µM in the experiment with HepG2, 10.3 µM in the experiment on MCF7 and 10 µM in the experiment on AGS. Besides, the Tm was 59 °C with Nucleic Acid [1] and 68 °C in the experiment on Nucleic Acid [4]. Besides, the ΔTm is 11 °C in the experiment with Nucleic Acid [2] and 21 °C with Nucleic Acid [3].
Take `Cn1cc(NC(=O)c2cc(NC(=O)c3cc(NC=O)cn3C)cn2C)cc1C(=O)NCCC(=N)N`: the results for the Tm in the experiment with Nucleic Acid [1] and with Nucleic Acid [4] were 65 °C and 45 °C, respectively. Besides, the ΔTm in the experiment on Nucleic Acid [2] is 16 °C; with Nucleic Acid [3] it was 0 °C.
As to `Cn1cc(NC(=O)c2cc(NC(=O)CNC(=N)N)cn2C)cc1C(=O)NCCC(=N)N`, the Tm with Nucleic Acid [1] was determined as 69 °C; in the experiment on Nucleic Acid [4], 48 °C. The ΔTm in the experiment with Nucleic Acid [2] came to 18 °C; in the experiment with Nucleic Acid [3] it was 0 °C.
For the molecule `C=CCOC(=O)Nc1cc(C(=O)Nc2cc(C(=O)NCCc3c[nH]c4ccccc34)n(C)c2)n(C)c1`, the results for the GI50 in the experiment with HepG2, with MCF7 and in the experiment on AGS were 14.3 µM, 15.4 µM and 1.7 µM, respectively.
For `COC(=O)Nc1cc(C(=O)Nc2cc(C(=O)NCCCC(=O)O)n(C)c2)n(C)c1`, in that order: more than 20 µg/mL, more than 20 µg/mL and more than 20 µg/mL.
As to `Cn1cc(NC(=O)c2cc(NC(=O)NCc3ccccc3)cn2C)cc1C(=O)NCCc1c[nH]c2ccccc12`, the GI50 in the experiment with HepG2, in the experiment with MCF7 and in the experiment on AGS was more than 20 µg/mL each time.
For the molecule `COC(=O)Nc1cc(C(=O)Nc2cc(C(=O)O)n(C)c2)n(C)c1`, the GI50 in the experiment with HepG2, with MCF7 and in the experiment with AGS was more than 20 µg/mL in each case.
`COC(=O)Nc1cc(C(=O)Nc2cc(C(=O)NCCc3c[nH]c4ccc(O)cc34)n(C)c2)n(C)c1`: the GI50 in the experiment with HepG2, in the experiment with MCF7 and in the experiment on AGS was more than 20 µg/mL throughout.
Take `Cn1cc(NC(=O)c2cc(NC(=O)Nc3ccccc3)cn2C)cc1C(=O)NCCc1c[nH]c2ccccc12`: the GI50 with HepG2 came out at 14.3 µM; with MCF7, 19.7 µM; with AGS, 16.8 µM. Besides, the Tm in the experiment with Nucleic Acid [1] was determined as 53 °C; with Nucleic Acid [4], 45 °C. Also, the results for the ΔTm in the experiment with Nucleic Acid [2] and in the experiment on Nucleic Acid [3] were 6 °C and 0 °C, respectively.
`COC(=O)Nc1coc(C(=O)Nc2coc(C(=O)NCCc3c[nH]c4ccccc34)c2)c1` [PROXIMICIN C]: the GI50 with HepG2 is 1.8 µM; in the experiment with MCF7 it was 20.6 µM; in the experiment on AGS, 0.6 µM.
For `COC(=O)Nc1cc(C(=O)Nc2cc(C(=O)NCCc3cnc[nH]3)n(C)c2)n(C)c1`, in that order: more than 20 µg/mL, more than 20 µg/mL and more than 20 µg/mL.
`Cn1cc(NC(=O)c2cc(NC(=O)OCc3ccccc3)cn2C)cc1C(=O)NCCc1c[nH]c2ccccc12`: the GI50 in the experiment on HepG2 came out at 5.6 µM; with MCF7, 10.8 µM; in the experiment with AGS it was 9.3 µM. Also, the Tm in the experiment on Nucleic Acid [1] is 65 °C; in the experiment with Nucleic Acid [4], 70 °C. For the same molecule, the ΔTm with Nucleic Acid [2] came to 17 °C; in the experiment on Nucleic Acid [3], 23 °C.
With `COC(=O)Nc1cc(C(=O)Nc2cc(C(=O)NC(Cc3c[nH]c4ccccc34)C(=O)O)n(C)c2)n(C)c1` (configuration not stated), the GI50 with HepG2, in the experiment on MCF7 and in the experiment on AGS was more than 20 µg/mL throughout.
Regarding `COC(=O)Nc1cc(C(=O)Nc2cc(C(=O)NCCC(C)C)n(C)c2)n(C)c1`, the GI50 in the experiment on HepG2, with MCF7 and in the experiment with AGS was more than 20 µg/mL throughout.
For the molecule `COC(=O)Nc1coc(C(=O)Nc2coc(C(=O)NCCc3ccc(O)cc3)c2)c1` [PROXIMICIN B], the GI50 is 23 µM in the experiment with HepG2, 12.1 µM in the experiment on MCF7 and 3.6 µM with AGS.
